According to publication PMC7839693 (Chemistry (Weinheim an Der Bergstrasse, Germany), 2020):
pIC50: −log10 of the molar value.

How the values were obtained:
human integrin αvβ3 = human integrin αvβ3 (Homo sapiens, UniProt P05106+P06756, DEL719-788); assay: Solid-phase receptor binding assay
E. coli β‐glucuronidase = E. coli β‐glucuronidase (Escherichia coli, UniProt P05804); assay: β-glucuronidase cleavage assay / drug release; format: in vitro ADME
M21 human melanoma cells = assay: In vitro cytotoxicity assay; format: cell-based; settings: incubated alone (no β-glucuronidase)
[1] = Pilot experiment: stability of Cry-55gly under alkaline conditions; format: physicochemical; settings: LiOH/H2O, 0 °C, 30 minutes, HPLC-MS
[2] = cited from earlier work
[3] = cited from earlier work; remark: listed apart in the source

COc1ccc(C[C@H]2NC(=O)/C=C/C[C@@H]([C@H](C)[C@@H](OC(=O)CNC(=O)OCc3cc(NC(=O)CCCc4cn(CCC(=O)NCCCC[C@@H]5NC(=O)[C@@H](Cc6ccccc6)NC(=O)[C@H](CC(=O)O)NC(=O)CNC(=O)[C@H](CCCNC(=N)N)NC5=O)nn4)cc(O[C@@H]4O[C@H](C(=O)O)[C@@H](O)[C@H](O)[C@H]4O)c3)[C@@H](Cl)c3ccccc3)OC(=O)[C@H](CC(C)C)OC(=O)C(C)(C)CNC2=O)cc1Cl [compound 2, c(RGDfK)‐(m)‐GlcA‐linker‐Cry‐55gly]
pIC50 (human integrin αvβ3): 7.93 | release of Cry-55gly after β-glucuronidase cleavage (E. coli β‐glucuronidase; E. coli β-glucuronidase 200 U mL-1, 37 °C, 60 min, HPLC and UPLC-MS): not released over time | stability in the absence of enzyme (control) (E. coli β‐glucuronidase; control experiments without β-glucuronidase, buffer, 37 °C, HPLC): stable | decreased activity relative to the free drug 3 (M21 human melanoma cells): 70 fold

COc1ccc(C[C@H]2NC(=O)/C=C/C[C@@H]([C@H](C)[C@@H](OC(=O)CN)[C@@H](Cl)c3ccccc3)OC(=O)[C@H](CC(C)C)OC(=O)C(C)(C)CNC2=O)cc1Cl [compound 3, cryptophycin‐55 glycinate]
conversion into the epoxide (cryptophycin-52, 4) [1]: 70% | stability in mouse plasma [2]: excellent stability | stability in human plasma [3]: excellent stability
